In patent US20080194406A1, “METHOD FOR TREATING AGRICULTURAL CROPS USING MATERIALS ASSOCIATED WITH TUBULAR CARRIERS” (NaturalNano, Inc., priority 2005, published 2008):

Assay: release profiles of drugs from halloysite tubule compositions, relative to total release amounts (FIGS. 4 and 5)
Type: physicochemical
Settings: release from mineral-derived tubule composition relative to total release amount; FIG. 4 (Tetracycline), FIG. 5 (Khellin)
Source text: FIGS. 4 and 5, respectively illustrate, relative to total release amounts, the release profiles for two drugs (Tetracycline and Khellin), wherein prolonged application periods are desired.

- release profile extends for: several days
SMILES: COc1c2occc2c(OC)c2c(=O)cc(C)oc12 [Khellin]
